Assay results: PMC2859832 (Journal of medicinal chemistry, 2009)
Where two headings read alike, the source gives them in different places. Starred links: 1 amine or outer side, 2 acyl side, 3 side chain; linkers in the order of their positions; H or OH if unused. Non-standard residues stand in square brackets, D forms with d. *: point of attachment. mPro = cis-3,4-methanoproline, O=C([C@@H]1[C@@H]2C[C@@H]2CN1[*:1])[*:2]; pY = N[C@@H](Cc1ccc(OP(=O)(O)O)cc1)C(=O)O; Hydrocinnamoyl = O=C(CCc1ccccc1)*; NHBn = c1ccc(CN*)cc1

Experiments:
SH2 domain of Stat3 [1] = target: T1, SH2 domain of Stat3 (Homo sapiens, UniProt P40763); assay: fluorescence polarization; assay type: binding; conditions: for fold lower affinity than the unsubstituted methyl group: relative to 4-methyl Aba peptide (17)
SH2 domain of Stat3 [2] = target: T1, SH2 domain of Stat3; conditions: FP assay; ref [8]; cited from earlier work

T1 sequence (P40763 whole entry, the tested form may be a part): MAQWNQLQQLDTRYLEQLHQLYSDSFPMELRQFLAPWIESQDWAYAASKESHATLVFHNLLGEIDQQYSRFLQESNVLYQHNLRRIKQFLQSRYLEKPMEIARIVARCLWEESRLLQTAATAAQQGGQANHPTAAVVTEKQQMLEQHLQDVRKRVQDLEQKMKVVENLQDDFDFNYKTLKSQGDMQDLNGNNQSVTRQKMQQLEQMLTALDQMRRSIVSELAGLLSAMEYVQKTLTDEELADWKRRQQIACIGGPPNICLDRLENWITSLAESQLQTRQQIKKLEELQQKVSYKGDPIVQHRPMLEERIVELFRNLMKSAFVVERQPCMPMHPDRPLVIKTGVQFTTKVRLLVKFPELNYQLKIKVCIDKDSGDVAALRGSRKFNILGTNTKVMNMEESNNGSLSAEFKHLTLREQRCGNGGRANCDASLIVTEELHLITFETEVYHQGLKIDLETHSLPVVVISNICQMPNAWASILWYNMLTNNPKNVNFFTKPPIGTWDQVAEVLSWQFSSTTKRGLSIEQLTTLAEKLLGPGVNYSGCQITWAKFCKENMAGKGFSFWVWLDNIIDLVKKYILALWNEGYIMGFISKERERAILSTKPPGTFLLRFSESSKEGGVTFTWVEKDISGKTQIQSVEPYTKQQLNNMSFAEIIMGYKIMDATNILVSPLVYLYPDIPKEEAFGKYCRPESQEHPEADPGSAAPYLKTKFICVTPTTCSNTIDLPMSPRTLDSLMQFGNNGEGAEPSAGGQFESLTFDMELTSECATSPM

## CC(C)C[C@H](NC(=O)/C=C/c1ccc(OP(=O)(O)O)cc1)C(=O)N1CCC[C@H]1C(=O)N[C@@H](CCC(N)=O)CN(Cc1ccccc1)Cc1ccccc1 [Peptide 29]
SH2 domain of Stat3 [1]
  fold lower affinity than the unsubstituted methyl group: 7 fold

## CC(C)C[C@H](NC(=O)/C=C/c1ccc(OP(=O)(O)O)cc1)C(=O)N1CCC[C@H]1C(=O)N[C@H](CN)CCC(N)=O [Peptide 30]
SH2 domain of Stat3 [1]
  fold lower affinity than the unsubstituted methyl group: 10 fold

## CC(C)C[C@H](NC(=O)/C=C/c1ccc(OP(=O)(O)O)cc1)C(=O)N1CCC[C@H]1C(=O)N[C@@H](COC(N)=O)[C@H](C)OCc1ccccc1 [Peptide 37]
SH2 domain of Stat3 [1]
  IC50: 6.9 µM

## CC(C)C[C@H](NC(=O)/C=C/c1ccc(OP(=O)(O)O)cc1)C(=O)N1CCC[C@H]1C(=O)N[C@H](C)CNC(N)=O [Peptide 39]
SH2 domain of Stat3 [1]; relative to 2-aminoethylurea peptide 38
  fold loss in activity on addition of a methyl group: 10 fold

## CC(C)C[C@H](NC(=O)/C=C/c1ccc(OP(=O)(O)O)cc1)C(=O)N1C[C@H]2C[C@H]2[C@H]1C(=O)N[C@@H](CCC(N)=O)C(=O)NCc1ccccc1 [Peptide 40, pCinn-Leu-cis-3,4-methanoPro-Gln-NHBn]
SH2 domain of Stat3 [1]; relative to peptide 2
  fold increase in affinity on incorporation of cis-3,4-methanoPro: 2 fold

## hydrocinnamoyl-pTyr-Leu-mPro-Gln-NHBn (Hydrocinnamoyl-[pY]L[mPro]Q-NHBn; SMILES CC(C)C[C@H](NC(=O)[C@H](Cc1ccc(OP(=O)(O)O)cc1)NC(=O)CCc1ccccc1)C(=O)N1C[C@H]2C[C@H]2[C@H]1C(=O)N[C@@H](CCC(N)=O)C(=O)NCc1ccccc1)
SH2 domain of Stat3 [2]
  IC50: 0.125 µM
